According to article PMC6009973 (Journal of Enzyme Inhibition and Medicinal Chemistry, 2017):

Target: T1, CpeCA (Clostridium perfringens, UniProt A0A0H2YPC2)
T1 construct: gene CPF_0414
Conditions: read-out: CpeCA^bβ; CO2 1.7-17 mM, 20 mM TRIS pH 8.3, 20 mM Na2SO4, 15 min pre-incubation at room temperature; errors 5-10%

T1 sequence (A0A0H2YPC2 1-190): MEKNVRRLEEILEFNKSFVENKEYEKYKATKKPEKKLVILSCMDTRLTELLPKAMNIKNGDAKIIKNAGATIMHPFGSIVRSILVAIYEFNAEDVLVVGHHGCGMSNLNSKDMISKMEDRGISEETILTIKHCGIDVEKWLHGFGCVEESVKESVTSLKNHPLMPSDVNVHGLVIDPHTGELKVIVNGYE

Row | Structure (SMILES) | Ki
1 | NS(=O)(=O)c1cc2c(cc1Cl)NCNS2(=O)=O [HCT, hydrochlorothiazide] | 219 nM
2 | O=C1NS(=O)(=O)c2ccccc21 [SAC, saccharin] | > 100000 nM
3 | Cc1onc(-c2ccccc2)c1-c1ccc(S(N)(=O)=O)cc1 [VLX, valdecoxib] | 160 nM
4 | CC1(C)O[C@@H]2[C@@H](CO[C@@]3(COS(N)(=O)=O)OC(C)(C)O[C@@H]23)O1 [TPM, topiramate] | 204 nM
5 | Cc1ccc(-c2cc(C(F)(F)F)nn2-c2ccc(S(N)(=O)=O)cc2)cc1 [CLX, celecoxib] | 312 nM
6 | NS(=O)(=O)c1ccc(S(=O)(=O)Nc2cccc3c(Cl)c[nH]c23)cc1 [IND, indisulam] | 173 nM
7 | NS(=O)(=O)c1ccc(CCNS(=O)(=O)c2ccc([N+](=O)[O-])cc2CO)cc1 [compound 24, 4-(2-hydroxymethyl-4-nitrophenyl-sulphonamido)ethylbenzenesulphonamide] | 51.2 nM
8 | CCN1CCCC1CNC(=O)c1cc(S(N)(=O)=O)ccc1OC (centres unmarked) [SLP, sulpiride] | 389 nM
9 | NS(=O)(=O)c1nnc(NS(=O)(=O)c2ccccc2)s1 [BZA, benzolamide] | 497 nM
10 | NS(=O)(=O)Cc1noc2ccccc12 [ZNS, zonisamide] | > 100000 nM
11 | CC(=O)N=c1sc(S(N)(=O)=O)nn1C [MZA, methazolamide] | 113 nM
12 | NS(=O)(=O)c1ccc(N2CCCCS2(=O)=O)cc1 [SLT, sulthiame] | 63.1 nM
13 | CCN[C@H]1CN(CCCOC)S(=O)(=O)c2sc(S(N)(=O)=O)cc21 [BRZ, brinzolamide] | 121 nM
14 | NS(=O)(=O)c1cc(Cl)c(Cl)c(S(N)(=O)=O)c1 [DCP, dichlorophenamide] | 68 nM
